Results from the supplement of paper PMC10307832.

Experiments:
Experiment in all cases: relative viability (nuclei count vs DMSO), 5 days (fraction); higher = more cells survive
[1] = tested on: 201T
In short: (§1)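 Values are medians from duplicate plates. Each reflects relative viability, defined as the nuclei count of treated wells over that of vehicle wells. Lung cancer cell lines in 1536-well plates were pin-tool dosed one day after seeding with one drug alone or with a fixed anchor-drug dose plus five library-drug doses (not always all listed) in √10 steps, then fixed, stained and imaged at 4× after 5 days.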

[2] = tested on: COR-L 105
In short: as §1

[3] = tested on: EPLC-272H
In short: as §1

[4] = tested on: H3255
In short: as §1

[5] = tested on: HCC-78
In short: as §1

[6] = tested on: HCC-827
In short: as §1

[7] = tested on: LC-2-ad
In short: as §1

[8] = tested on: LCLC-97TM1
In short: as §1

[9] = tested on: NCI-H1666
In short: as §1

[10] = tested on: NCI-H1915
In short: as §1

[11] = tested on: NCI-H2087
In short: as §1

[12] = tested on: NCI-H2126
In short: as §1

[13] = tested on: NCI-H2347
In short: as §1

[14] = tested on: NCI-H23
In short: as §1

[15] = tested on: NCI-H2405
In short: as §1

[16] = tested on: NCI-H322M
In short: as §1

[17] = tested on: NCI-H520
In short: as §1

[18] = tested on: NCI-H647
In short: as §1

[19] = tested on: NCI-H650
In short: as §1

[20] = tested on: NCI-H661
In short: as §1

[21] = tested on: PC-14
In short: as §1

[22] = tested on: RERF-LC-KJ
In short: as §1

CC1(C)CCC(c2ccc(Cl)cc2)=C(CN2CCN(c3ccc(C(=O)NS(=O)(=O)c4ccc(N[C@H](CCN5CCOCC5)CSc5ccccc5)c(S(=O)(=O)C(F)(F)F)c4)cc3)CC2)C1 [Navitoclax] + CS(=O)(=O)CCNCc1ccc(-c2ccc3ncnc(Nc4ccc(OCc5cccc(F)c5)c(Cl)c4)c3c2)o1 [Lapatinib] (partner 2 µM)
relative viability ([1]; first compound 0.005 µM): 1.06 | relative viability ([1]; first compound 0.01581 µM): 1.12 | relative viability ([1]; first compound 0.05 µM): 0.992 | relative viability ([1]; first compound 0.1581 µM): 1.03 | relative viability ([1]; first compound 0.5 µM): 1.06 | relative viability ([2]; first compound 0.005 µM): 0.335 | relative viability ([2]; first compound 0.01581 µM): 0.407 | relative viability ([2]; first compound 0.05 µM): 0.307 | relative viability ([2]; first compound 0.1581 µM): 0.282 | relative viability ([2]; first compound 0.5 µM): 0.333 | relative viability ([3]; first compound 0.005 µM): 0.904 | relative viability ([3]; first compound 0.1581 µM): 0.906 | relative viability ([3]; first compound 0.5 µM): 0.881 | relative viability ([4]; first compound 0.005 µM): 0.271 | relative viability ([4]; first compound 0.01581 µM): 0.258 | relative viability ([4]; first compound 0.05 µM): 0.226 | relative viability ([4]; first compound 0.1581 µM): 0.25 | relative viability ([4]; first compound 0.5 µM): 0.19 | relative viability ([5]; first compound 0.005 µM): 0.704 | relative viability ([5]; first compound 0.01581 µM): 0.987 | relative viability ([5]; first compound 0.1581 µM): 0.75 | relative viability ([5]; first compound 0.5 µM): 0.76 | relative viability ([6]; first compound 0.005 µM): 0.199 | relative viability ([6]; first compound 0.01581 µM): 0.2 | relative viability ([6]; first compound 0.05 µM): 0.194 | relative viability ([6]; first compound 0.1581 µM): 0.21 | relative viability ([6]; first compound 0.5 µM): 0.196 | relative viability ([7]; first compound 0.005 µM): 0.936 | relative viability ([7]; first compound 0.01581 µM): 1.02 | relative viability ([7]; first compound 0.05 µM): 0.898 | relative viability ([7]; first compound 0.1581 µM): 1.01 | relative viability ([7]; first compound 0.5 µM): 0.96 | relative viability ([8]; first compound 0.005 µM): 0.884 | relative viability ([8]; first compound 0.01581 µM): 1.21 | relative viability ([8]; first compound 0.05 µM): 0.865 | relative viability ([8]; first compound 0.1581 µM): 0.856 | relative viability ([8]; first compound 0.5 µM): 1.17 | relative viability ([9]; first compound 0.005 µM): 0.584 | relative viability ([9]; first compound 0.01581 µM): 0.694 | relative viability ([9]; first compound 0.05 µM): 0.524 | relative viability ([9]; first compound 0.1581 µM): 0.579 | relative viability ([9]; first compound 0.5 µM): 0.425 | relative viability ([10]; first compound 0.005 µM): 0.915 | relative viability ([10]; first compound 0.01581 µM): 0.953 | relative viability ([10]; first compound 0.05 µM): 0.819 | relative viability ([10]; first compound 0.1581 µM): 0.862 | relative viability ([10]; first compound 0.5 µM): 0.868 | relative viability ([11]; first compound 0.005 µM): 1.15 | relative viability ([11]; first compound 0.01581 µM): 1.06 | relative viability ([11]; first compound 0.05 µM): 0.837 | relative viability ([11]; first compound 0.1581 µM): 0.925 | relative viability ([11]; first compound 0.5 µM): 1.02 | relative viability ([12]; first compound 0.005 µM): 0.784 | relative viability ([12]; first compound 0.01581 µM): 0.757 | relative viability ([12]; first compound 0.05 µM): 0.739 | relative viability ([12]; first compound 0.1581 µM): 0.729 | relative viability ([12]; first compound 0.5 µM): 0.702 | relative viability ([13]; first compound 0.005 µM): 0.957 | relative viability ([13]; first compound 0.01581 µM): 1.09 | relative viability ([13]; first compound 0.05 µM): 0.753 | relative viability ([13]; first compound 0.1581 µM): 0.765 | relative viability ([13]; first compound 0.5 µM): 0.923 | relative viability ([14]; first compound 0.005 µM): 1.05 | relative viability ([14]; first compound 0.01581 µM): 1.05 | relative viability ([14]; first compound 0.05 µM): 1.11 | relative viability ([14]; first compound 0.1581 µM): 1.05 | relative viability ([14]; first compound 0.5 µM): 1.09 | relative viability ([15]; first compound 0.005 µM): 1.03 | relative viability ([15]; first compound 0.01581 µM): 1.29 | relative viability ([15]; first compound 0.05 µM): 1.19 | relative viability ([15]; first compound 0.1581 µM): 1.02 | relative viability ([15]; first compound 0.5 µM): 0.927 | relative viability ([16]; first compound 0.005 µM): 0.672 | relative viability ([16]; first compound 0.01581 µM): 0.603 | relative viability ([16]; first compound 0.05 µM): 0.625 | relative viability ([16]; first compound 0.1581 µM): 0.535 | relative viability ([16]; first compound 0.5 µM): 0.576 | relative viability ([17]; first compound 0.005 µM): 0.855 | relative viability ([17]; first compound 0.01581 µM): 0.965 | relative viability ([17]; first compound 0.05 µM): 0.967 | relative viability ([17]; first compound 0.1581 µM): 0.763 | relative viability ([17]; first compound 0.5 µM): 0.758 | relative viability ([18]; first compound 0.005 µM): 0.888 | relative viability ([18]; first compound 0.01581 µM): 1.05 | relative viability ([18]; first compound 0.05 µM): 1.51 | relative viability ([18]; first compound 0.1581 µM): 1.1 | relative viability ([18]; first compound 0.5 µM): 0.918 | relative viability ([19]; first compound 0.005 µM): 0.709 | relative viability ([19]; first compound 0.01581 µM): 0.977 | relative viability ([19]; first compound 0.05 µM): 1.07 | relative viability ([19]; first compound 0.1581 µM): 0.894 | relative viability ([19]; first compound 0.5 µM): 0.881 | relative viability ([20]; first compound 0.005 µM): 0.542 | relative viability ([20]; first compound 0.01581 µM): 0.613 | relative viability ([20]; first compound 0.05 µM): 0.484 | relative viability ([20]; first compound 0.1581 µM): 0.504 | relative viability ([20]; first compound 0.5 µM): 0.391 | relative viability ([21]; first compound 0.005 µM): 0.343 | relative viability ([21]; first compound 0.01581 µM): 0.343 | relative viability ([21]; first compound 0.05 µM): 0.283 | relative viability ([21]; first compound 0.1581 µM): 0.385 | relative viability ([21]; first compound 0.5 µM): 0.338 | relative viability ([22]; first compound 0.005 µM): 0.857 | relative viability ([22]; first compound 0.01581 µM): 0.809 | relative viability ([22]; first compound 0.05 µM): 0.75 | relative viability ([22]; first compound 0.1581 µM): 0.852 | relative viability ([22]; first compound 0.5 µM): 0.884
